Source: PubChem BioAssay AID256 (DTP/NCI, 2004)
Several values for one entry are separate records, joined by “and”; a condition that tells them apart may be missing. Identical values can stand only once. Toxic doses and inconclusive results are not listed. The calls were made as follows: active = survival T/C of 150% or more; inactive = T/C below 125% in these data.

Test system: CD2F1 mice, L1210 leukemia ip, survival T/C
Assay: NCI In Vivo Anticancer Drug Screen. Data for tumor model L1210 Leukemia (intraperitoneal) in CD2F1 (CDF1) mice
Conditions: endpoint: mean survival time, higher = longer survival
Procedure, shortened: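 In this screen, transplantable tumors were grown in mice given either the compound or its vehicle. Results were expressed as the treated measurement relative to the control measurement.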

[1] = dose: 25.0 mg/kg/injection, schedule: Q01DX009 (ip), vehicle: saline with Tween-80
[2] = dose: 100.0 mg/kg/injection, schedule: Q01DX009 (ip), vehicle: saline with Tween-80
[3] = dose: 100.0 mg/kg/injection, schedule: Q04DX003 (ip), vehicle: saline with Tween-80
[4] = dose: 200.0 mg/kg/injection, schedule: Q01DX009 (ip), vehicle: saline with Tween-80
[5] = dose: 200.0 mg/kg/injection, schedule: Q04DX003 (ip), vehicle: saline with Tween-80
[6] = dose: 400.0 mg/kg/injection, schedule: Q04DX003 (ip), vehicle: saline with Tween-80

Measured: T/C

COc1ccc(OC)c(/C=C(\C#N)c2ccc([N+](=O)[O-])cc2)c1
inactive: dose: 16.5 mg/kg/injection, schedule: Q01DX009 (ip), vehicle: saline with Tween-80 87 % of control | [1] 87 % of control | [2] 90 % of control | [3] 91 % of control | [4] 86 % of control | [5] 101 % of control

O=C(O)c1ccccc1C(Br)C(Br)c1ccccc1 (configuration not stated)
inactive: [3] 101 % of control | [5] 98 % of control | [6] 106 % of control

CCCCCCCCCC(=O)NCC[N+](C)(CC)CC
inactive: dose: 5.0 mg/kg/injection, schedule: Q01DX001 (ip), vehicle: saline 102 % of control | dose: 10.0 mg/kg/injection, schedule: Q01DX001 (ip), vehicle: saline 107 % of control | dose: 20.0 mg/kg/injection, schedule: Q01DX001 (ip), vehicle: saline 100 % of control | dose: 40.0 mg/kg/injection, schedule: Q01DX001 (ip), vehicle: saline 105 % of control

CS(=O)(=O)OCCN(CCOS(C)(=O)=O)c1cccc([N+](=O)[O-])c1
inactive: dose: 8.0 mg/kg/injection, schedule: Q01DX001 (ip), vehicle: saline 96 % of control | dose: 10.0 mg/kg/injection, schedule: Q01DX010 (ip), vehicle: saline 113 % of control | dose: 16.0 mg/kg/injection, schedule: Q01DX001 (ip), vehicle: saline 103 % of control | dose: 32.0 mg/kg/injection, schedule: Q01DX001 (ip), vehicle: saline 110 % of control | dose: 64.0 mg/kg/injection, schedule: Q01DX001 (ip), vehicle: saline 114 % of control and 108 % of control | dose: 128.0 mg/kg/injection, schedule: Q01DX001 (ip), vehicle: saline 118 % of control | dose: 256.0 mg/kg/injection, schedule: Q01DX001 (ip), vehicle: saline 119 % of control | dose: 300.0 mg/kg/injection, schedule: Q01DX010 (ip), vehicle: saline 97 % of control

Nc1nc2c(ncn2-c2ccc(OCCNC(=O)Nc3cc(S(=O)(=O)F)ccc3Cl)cc2)c(=O)[nH]1 (tested in a mixture with another compound)
inactive: dose: 75.0 mg/kg/injection, schedule: Q01DX001 (ip), vehicle: saline with Tween-80 92 % of control | dose: 150.0 mg/kg/injection, schedule: Q01DX001 (ip), vehicle: saline with Tween-80 95 % of control

CCc1ccc(C(=O)N/N=C(\C)[C@]2(O)Cc3c(O)c4c(c(O)c3[C@@H](OC3CC(N)C(O)C(C)O3)C2)C(=O)c2c(OC)cccc2C4=O)cc1 (some centres not stated)
inactive: dose: 0.25 mg/kg/injection, schedule: Q01DX009 (ip), vehicle: water 100 % of control | dose: 0.5 mg/kg/injection, schedule: Q01DX009 (ip), vehicle: water 110 % of control | dose: 1.0 mg/kg/injection, schedule: Q01DX009 (ip), vehicle: water 112 % of control | dose: 8.0 mg/kg/injection, schedule: Q01DX009 (ip), vehicle: water 91 % of control

CCNc1cc(Cl)c(C(=O)O)cc1[N+](=O)[O-]
inactive: dose: 100.0 mg/kg/injection, schedule: Q04DX003 (ip), vehicle: saline 105 % of control | dose: 200.0 mg/kg/injection, schedule: Q04DX003 (ip), vehicle: saline 110 % of control | dose: 400.0 mg/kg/injection, schedule: Q04DX003 (ip), vehicle: saline 115 % of control

C[Si](C)(C)Oc1cc(N=NNC2=CC(=O)c3ccccc3C2=O)c(O)c2ccccc12
inactive: dose: 12.5 mg/kg/injection, schedule: Q01DX009 (ip), vehicle: saline with Tween-80 95 % of control | [1] 98 % of control | dose: 50.0 mg/kg/injection, schedule: Q01DX009 (ip), vehicle: saline with Tween-80 95 % of control

C=C1C[C@@H](O)C[C@@]2(C)C[C@@H]3OC(=O)C(=C)[C@@H]3C[C@H]12
inactive: [2] 104 % of control | [4] 111 % of control

[Cl][Pd][Cl]
inactive: dose: 12.5 mg/kg/injection, schedule: Q01DX009 (ip), vehicle: saline sonified 95 % of control | dose: 12.5 mg/kg/injection, schedule: Q04DX003 (ip), vehicle: saline with Tween-80 107 % of control | dose: 25.0 mg/kg/injection, schedule: Q04DX003 (ip), vehicle: saline with Tween-80 103 % of control | dose: 50.0 mg/kg/injection, schedule: Q04DX003 (ip), vehicle: saline with Tween-80 91 % of control

COC(=O)NC1=Nc2ccccc2-c2ccccc2N1
inactive: [3] 101 % of control | [5] 96 % of control | [6] 96 % of control

Cc1cc2c(c3oc(C4(C)OC4C4OC4C)cc(=O)c13)C(=O)c1c(O)c(C3CC(C)(N(C)C)C(O)C(C)O3)cc(C3CC(N(C)C)C(O)C(C)O3)c1C2=O (configuration not stated)
inactive: dose: 0.07 mg/kg/injection, schedule: Q01DX009 (oral), vehicle: saline 87 % of control | dose: 0.13 mg/kg/injection, schedule: Q01DX009 (oral), vehicle: saline 93 % of control | dose: 0.25 mg/kg/injection, schedule: Q01DX001 (oral), vehicle: saline 98 % of control | dose: 0.25 mg/kg/injection, schedule: Q01DX009 (oral), vehicle: saline 92 % of control | dose: 0.5 mg/kg/injection, schedule: Q01DX001 (oral), vehicle: saline 97 % of control | dose: 0.5 mg/kg/injection, schedule: Q01DX009 (oral), vehicle: saline 100 % of control | dose: 1.0 mg/kg/injection, schedule: Q01DX001 (oral), vehicle: saline 96 % of control | dose: 2.0 mg/kg/injection, schedule: Q01DX001 (oral), vehicle: saline 97 % of control | dose: 1.0 micrograms/kg/injection, schedule: Q03HX024 (ip), vehicle: saline 106 % of control | dose: 1.3 micrograms/kg/injection, schedule: Q01DX009 (ip), vehicle: water 101 % of control | dose: 2.0 micrograms/kg/injection, schedule: Q03HX024 (ip), vehicle: saline 111 % of control | dose: 2.5 micrograms/kg/injection, schedule: Q01DX009 (ip), vehicle: water 112 % of control | dose: 4.0 micrograms/kg/injection, schedule: Q01DX009 (ip), vehicle: saline 102 % of control | dose: 4.0 micrograms/kg/injection, schedule: Q03HX024 (ip), vehicle: saline 111 % of control | dose: 5.0 micrograms/kg/injection, schedule: Q01DX009 (ip), vehicle: water 108 % of control | dose: 8.0 micrograms/kg/injection, schedule: Q01DX009 (ip), vehicle: saline 109 % of control | dose: 8.0 micrograms/kg/injection, schedule: Q03HX008 (ip), vehicle: saline 103 % of control | dose: 8.0 micrograms/kg/injection, schedule: Q03HX024 (ip), vehicle: saline 112 % of control | dose: 10.0 micrograms/kg/injection, schedule: Q01DX009 (ip), vehicle: water 112 % of control | dose: 15.0 micrograms/kg/injection, schedule: Q01DX009 (ip), vehicle: saline 109 % of control | dose: 15.0 micrograms/kg/injection, schedule: Q03HX008 (ip), vehicle: saline 112 % of control | dose: 15.0 micrograms/kg/injection, schedule: Q08DX002 (ip), vehicle: saline 98 % of control | dose: 20.0 micrograms/kg/injection, schedule: Q01DX009 (ip), vehicle: water 106 % of control | dose: 30.0 micrograms/kg/injection, schedule: Q01DX009 (ip), vehicle: saline 114 % of control | dose: 30.0 micrograms/kg/injection, schedule: Q03HX008 (ip), vehicle: saline 113 % of control | dose: 30.0 micrograms/kg/injection, schedule: Q08DX002 (ip), vehicle: saline 98 % of control | dose: 40.0 micrograms/kg/injection, schedule: Q01DX009 (ip), vehicle: water 91 % of control | dose: 60.0 micrograms/kg/injection, schedule: Q03HX008 (ip), vehicle: saline 118 % of control | dose: 60.0 micrograms/kg/injection, schedule: Q08DX002 (ip), vehicle: saline 106 % of control | dose: 120.0 micrograms/kg/injection, schedule: Q08DX002 (ip), vehicle: saline 121 % of control
